# Test results from patent publication US20080125395A1, “COMPOSITIONS AND METHODS FOR THE TREATMENT OF SKIN” (priority 1999, published 2008).
# System: rosacea
# Test: topical treatment of rosacea in human subjects (case reports)
# Format: in vivo
# Conditions: long-term use by subjects with facial rosacea
# Description: A second subject was a person who suffered from disfiguring rosacea on their face for 14 years. […] After failure of the cortisone treatment to provide adequate relief, the subject used an ascorbic acid, zinc sulfate and tyrosine formulation once a day. The ascorbic acid composition provided slight relief, but the subject's rosacea never cleared up adequately. The subject then used the same ascorbic acid formulation to which 20% (w/v) glucosamine had been added.
# FIG. 4 provides an exemplary depiction of the cosmetic and therapeutic benefits of the present invention. A subject used an embodiment of the present invention containing glucosamine for one week. Before using the embodiment (panel A), the subject suffered from disfiguring rosacea blemishes on their face. […] In one week, the size of blemishes has decreased and the intensity of the rosacea has abated, although some scarring (resulting from years of severe inflammatory lesions that had not responded to previous treatments) remains.
smiles,measurement,value
C[C@]12CCC(=O)C=C1CC[C@@H]1[C@@H]2[C@@H](O)C[C@@]2(C)[C@H]1CC[C@]2(O)C(=O)CO [hydrocortisone],control of rosacea inflammation,partially control
